From ChEMBL document CHEMBL1130874, “Heteroatom- and carbon-linked biphenyl analogs of Brequinar as immunosuppressive agents” (Bioorg Med Chem Lett, 1998)

Tests used:
[1] = biological target: Dihydroorotate dehydrogenase (quinone), mitochondrial (Homo sapiens, UniProt Q02127); assay: Immunosuppressive effect in an isolated enzyme assay using partially purified Dihydroorotate dehydrogenase from human liver for inhibition of the formation of orotate from radiolabeled dihydroorotate
[2] = Ability to inhibit proliferation in a mixture of human lymphocytes from two unrelated donors in MLR (human mixed lymphocyte reaction); format: functional, cell-based

Chain of Dihydroorotate dehydrogenase (quinone), mitochondrial (Q02127 whole entry): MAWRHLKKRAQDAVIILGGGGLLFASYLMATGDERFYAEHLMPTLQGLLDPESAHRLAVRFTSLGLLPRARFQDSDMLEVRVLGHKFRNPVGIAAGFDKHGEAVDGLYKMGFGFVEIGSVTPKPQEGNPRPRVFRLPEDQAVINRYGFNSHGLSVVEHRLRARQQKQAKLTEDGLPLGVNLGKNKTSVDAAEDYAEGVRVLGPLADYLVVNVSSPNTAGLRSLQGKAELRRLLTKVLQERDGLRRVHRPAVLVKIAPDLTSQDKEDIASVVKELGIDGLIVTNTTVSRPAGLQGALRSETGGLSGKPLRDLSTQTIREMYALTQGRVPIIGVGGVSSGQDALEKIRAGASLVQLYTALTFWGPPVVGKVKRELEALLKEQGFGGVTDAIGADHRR

Structure (SMILES): COc1cccc(-c2cccc3c(-c4nc5ccc(F)cc5c(C(=O)O)c4C)cn(C)c23)c1
- Ki [1]: 32 nM
- IC50 [2]: 190 nM

Structure (SMILES): CC(=O)N(c1cccc(-c2ccccc2)c1)c1nc2ccc(F)cc2c(C(=O)O)c1C
- Ki [1]: > 390 nM
- IC50 [2]: > 10000 nM

Structure (SMILES): Cc1c(-c2cn(C)c3c(-c4ccccc4)cccc23)nc2ccc(F)cc2c1C(=O)O
- Ki [1]: 27 nM
- IC50 [2]: 140 nM

Structure (SMILES): Cc1c(N(C)c2cccc(-c3ccccc3)c2)nc2ccc(F)cc2c1C(=O)O
- Ki [1]: 240 nM
- IC50 [2]: > 10000 nM

Structure (SMILES): Cc1c(OCc2ccc(-c3ccccc3)cc2)nc2ccc(F)cc2c1C(=O)O
- Ki [1]: > 200 nM
- IC50 [2]: > 10000 nM

Structure (SMILES): Cc1ccccc1-c1cccc2c1CCN2c1nc2ccc(F)cc2c(C(=O)O)c1C
- Ki [1]: 25 nM
- IC50 [2]: 1.6 nM

Structure (SMILES): COc1cc(-c2ccccc2)c2c(c1)N(c1nc3ccc(F)cc3c(C(=O)O)c1C)CC2
- Ki [1]: 22 nM
- IC50 [2]: 35 nM

Structure (SMILES): Cc1c(Oc2ccccc2)nc2ccc(F)cc2c1C(=O)O
- Ki [1]: > 1000 nM
- IC50 [2]: > 10000 nM

Structure (SMILES): Cc1c(-c2cccc3c(-c4ccccc4)cccc23)nc2ccc(F)cc2c1C(=O)O
- Ki [1]: 26 nM
- IC50 [2]: 150 nM

Structure (SMILES): Cc1c(-c2cn(C)c3c(-c4cccc(C(F)(F)F)c4)cccc23)nc2ccc(F)cc2c1C(=O)O
- Ki [1]: 23 nM
- IC50 [2]: 7 nM

Structure (SMILES): Cc1c(Oc2cccc(-c3ccccc3)c2)nc2ccc(F)cc2c1C(=O)O
- Ki [1]: 21 nM
- IC50 [2]: 210 nM

Structure (SMILES): COc1ccccc1-c1cccc2c1CCN2c1nc2ccc(F)cc2c(C(=O)O)c1C
- Ki [1]: 30 nM
- IC50 [2]: 4.1 nM

Structure (SMILES): Cc1c(Nc2ccccc2)nc2ccc(F)cc2c1C(=O)O
- Ki [1]: > 200 nM
- IC50 [2]: > 10000 nM

Structure (SMILES): Cc1c(-n2cnc3c(-c4ccccc4)cccc32)nc2ccc(F)cc2c1C(=O)O
- Ki [1]: 71 nM
- IC50 [2]: 4700 nM

Structure (SMILES): Cc1c(Oc2ccc(-c3ccccc3)cc2)nc2ccc(F)cc2c1C(=O)O
- Ki [1]: > 1000 nM
- IC50 [2]: > 10000 nM

Structure (SMILES): Cc1c(Nc2ccc(-c3ccccc3)cc2)nc2ccc(F)cc2c1C(=O)O
- Ki [1]: > 430 nM
- IC50 [2]: > 10000 nM

Structure (SMILES): Cc1c(N2CCc3c(-c4ccccc4F)cccc32)nc2ccc(F)cc2c1C(=O)O
- Ki [1]: 24 nM
- IC50 [2]: 2.8 nM

Structure (SMILES): COc1ccccc1-c1cccc2c(-c3nc4ccc(F)cc4c(C(=O)O)c3C)cn(C)c12
- Ki [1]: 40 nM
- IC50 [2]: 650 nM

Structure (SMILES): Cc1c(N2CCc3c(-c4cccc(C(F)(F)F)c4)cccc32)nc2ccc(F)cc2c1C(=O)O
- Ki [1]: 24 nM
- IC50 [2]: 0.41 nM

Structure (SMILES): COc1cccc(-c2cccc3c2CCN3c2nc3ccc(F)cc3c(C(=O)O)c2C)c1
- Ki [1]: 34 nM
- IC50 [2]: 4 nM

Structure (SMILES): Cc1c(Nc2cccc(-c3ccccc3)c2)nc2ccc(F)cc2c1C(=O)O
- Ki [1]: 83 nM
- IC50 [2]: 340 nM

Structure (SMILES): Cc1c(-c2c[nH]c3c(-c4ccccc4)cccc23)nc2ccc(F)cc2c1C(=O)O
- Ki [1]: > 130 nM
- IC50 [2]: 1600 nM

Structure (SMILES): Cc1c(-n2ccc3c(-c4ccccc4)cccc32)nc2ccc(F)cc2c1C(=O)O
- Ki [1]: 4.5 nM
- IC50 [2]: 380 nM

Structure (SMILES): Cc1c(N2CCc3c(-c4ccccc4)cccc32)nc2ccc(F)cc2c1C(=O)O
- Ki [1]: 15 nM
- IC50 [2]: 26 nM

Structure (SMILES): Cc1c(N2CCc3c(-c4ccccc4)cc(F)cc32)nc2ccc(F)cc2c1C(=O)O
- Ki [1]: 30 nM
- IC50 [2]: 41 nM

Structure (SMILES): Cc1c(OCc2cccc(-c3ccccc3)c2)nc2ccc(F)cc2c1C(=O)O
- Ki [1]: 330 nM
- IC50 [2]: > 10000 nM

Structure (SMILES): Cc1c(-c2ccc(-c3ccccc3F)cc2)nc2ccc(F)cc2c1C(=O)O [BREQUINAR SODIUM]
- IC50 [2]: 15 nM
